Tests used:
Experiment in all cases: relative viability (nuclei count vs DMSO), 5 days (fraction); higher = more cells survive
Carfilzomib + Bortezomib = compound: CC(C)C[C@H](NC(=O)[C@H](CCc1ccccc1)NC(=O)CN1CCOCC1)C(=O)N[C@@H](Cc1ccccc1)C(=O)N[C@@H](CC(C)C)C(=O)[C@@]1(C)CO1 [Carfilzomib] + CC(C)C[C@H](NC(=O)[C@H](Cc1ccccc1)NC(=O)c1cnccn1)B(O)O [Bortezomib] (partner 0.002 µM)
Summary of the method: (§1)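 Lung cancer cell lines in 1536-well plates were dosed by pin tool the day after seeding, either with one drug alone or with a fixed anchor-drug dose plus five library-drug doses (not always all listed) in √10 steps. After 5 days, cells were fixed and their nuclei stained in one step (final 0.05% Triton X-100, 1% formaldehyde, 1 ug/ml Hoechst), then counted on 4× images. Relative viability is the nuclei count in treated wells divided by that in vehicle wells. Values are medians of duplicate plates.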

Carfilzomib + Foretinib = compound: CC(C)C[C@H](NC(=O)[C@H](CCc1ccccc1)NC(=O)CN1CCOCC1)C(=O)N[C@@H](Cc1ccccc1)C(=O)N[C@@H](CC(C)C)C(=O)[C@@]1(C)CO1 [Carfilzomib] + COc1cc2c(Oc3ccc(NC(=O)C4(C(=O)Nc5ccc(F)cc5)CC4)cc3F)ccnc2cc1OCCCN1CCOCC1 [Foretinib] (partner 0.25 µM)
Summary of the method: as §1

Olaparib + OSI-027 = compound: O=C(c1cc(Cc2n[nH]c(=O)c3ccccc23)ccc1F)N1CCN(C(=O)C2CC2)CC1 [Olaparib] + COc1cccc2cc(-c3nc([C@H]4CC[C@H](C(=O)O)CC4)n4ncnc(N)c34)[nH]c12 [OSI-027] (partner 0.5 µM)
Summary of the method: as §1

Olaparib + AZD7762 = compound: O=C(c1cc(Cc2n[nH]c(=O)c3ccccc23)ccc1F)N1CCN(C(=O)C2CC2)CC1 [Olaparib] + NC(=O)Nc1cc(-c2cccc(F)c2)sc1C(=O)N[C@H]1CCCNC1 [AZD7762] (partner 0.2 µM)
Summary of the method: as §1

Cell Line	relative viability (Carfilzomib + Bortezomib; first compound 0.001 µM)	relative viability (Carfilzomib + Bortezomib; first compound 0.003162 µM)	relative viability (Carfilzomib + Bortezomib; first compound 0.01 µM)	relative viability (Carfilzomib + Bortezomib; first compound 0.03162 µM)	relative viability (Carfilzomib + Bortezomib; first compound 0.1 µM)	relative viability (Carfilzomib + Foretinib; first compound 0.001 µM)	relative viability (Carfilzomib + Foretinib; first compound 0.003162 µM)	relative viability (Carfilzomib + Foretinib; first compound 0.01 µM)	relative viability (Carfilzomib + Foretinib; first compound 0.03162 µM)	relative viability (Carfilzomib + Foretinib; first compound 0.1 µM)	relative viability (Olaparib + OSI-027; first compound 0.08 µM)	relative viability (Olaparib + OSI-027; first compound 0.253 µM)	relative viability (Olaparib + OSI-027; first compound 2.53 µM)	relative viability (Olaparib + OSI-027; first compound 8 µM)	relative viability (Olaparib + AZD7762; first compound 0.08 µM)	relative viability (Olaparib + AZD7762; first compound 0.253 µM)	relative viability (Olaparib + AZD7762; first compound 2.53 µM)	relative viability (Olaparib + AZD7762; first compound 8 µM)
NCI-H441	0.25	0.383	0.14	0.153	0.111	0.878	0.977	0.61	0.199	0.349	0.683	0.724	0.642	0.581	1.16	1.03	1	0.446
ABC-1	0.334	0.231	0.242	0.27	0.225	0.912	0.815	0.292	0.17	0.224	0.801	0.52	0.488	0.55	0.799	0.75	0.842	0.691
NCI-H2170	–	–	–	–	–	1.05	1.02	1.06	1.06	0.397	0.809	0.685	0.679	0.694	0.718	0.857	0.627	0.398
NCI-H1944	–	–	–	–	–	0.932	0.955	0.949	0.931	0.337	0.404	0.362	0.369	0.374	0.511	0.729	0.43	0.383
PC-3 [JPC-3]	0.864	0.767	0.581	0.245	0.147	1.02	1.01	1.05	0.889	0.279	0.825	0.711	0.824	0.747	0.887	–	0.866	0.926
NCI-H1648	–	–	–	–	–	–	–	–	–	–	–	0.25	–	0.223	0.831	0.75	–	0.544
NCI-H1975	0.255	0.266	0.137	0.122	0.13	–	0.859	0.621	0.0974	0.104	0.761	0.703	0.848	0.758	0.793	0.727	0.705	0.765
NCI-H650	0.587	0.701	0.619	0.145	0.157	–	1.27	1.03	0.71	0.174	0.631	0.498	0.5	0.414	1.05	0.956	0.826	0.927
NCI-H1623	–	–	–	–	–	0.838	0.906	1.14	0.455	0.514	0.511	0.457	0.474	0.42	–	–	–	–
NCI-H1755	0.929	1.02	0.685	0.282	0.221	0.954	0.939	0.954	0.928	0.479	0.803	0.64	0.647	0.638	0.452	0.451	0.489	0.399
NCI-H1666	0.987	0.888	0.771	0.188	0.218	0.988	0.979	1.07	0.928	0.45	0.845	0.791	0.717	0.758	0.892	0.725	0.781	0.835
NCI-H1792	0.962	1	0.919	0.979	0.559	–	–	–	–	–	0.759	0.652	0.712	0.669	0.774	0.559	0.496	0.254
CAL-12T	–	1.17	1.13	0.691	0.195	1.08	1.1	1.06	0.807	0.103	1.05	0.568	0.602	0.627	0.757	0.555	0.726	0.544
EPLC-272H	0.738	0.626	0.655	0.105	0.0698	0.901	0.764	0.601	0.0828	0.0461	0.334	0.286	0.31	0.299	0.289	0.163	0.176	0.114
IA-LM	0.843	0.673	0.584	0.0124	0.0142	1.22	1.23	0.899	0.0144	0.0167	–	–	–	–	–	–	–	–
PC-14	0.888	0.963	0.494	0.0957	0.0938	0.979	0.958	0.996	0.826	0.081	1.27	0.795	0.805	0.471	0.4	0.334	0.355	0.205
NCI-H1703	0.216	0.167	0.156	0.0967	0.129	–	0.421	0.231	0.126	0.154	–	–	–	–	0.119	0.193	0.143	0.141
NCI-H1437	0.473	0.5	0.437	0.176	0.13	1.29	1.4	1.29	1.19	0.284	0.967	0.871	0.855	0.771	1.19	1.11	1.15	0.997
NCI-H358	–	–	–	–	–	0.688	1.01	0.63	0.0762	0.0649	0.648	0.727	0.727	0.588	0.574	0.522	0.495	0.382
LK-2	–	–	–	–	–	1.24	1.25	1.42	0.144	0.16	0.2	0.193	0.189	0.175	0.351	0.394	0.348	0.471

Source: the supplement of paper PMC10307832
